Measured values as given in patent EP4467137A1, “TREATMENT OF FRONTOTEMPORAL DEMENTIA OR FRONTOTEMPORAL LOBAR DEMENTIA” (Universidad Autónoma de Madrid, priority 2023, dated 2024).

How the values were obtained:
[1] = molecular target: T1, human lipoxygenase-5 (hLOX-5) (Homo sapiens, UniProt P09917); assay: Inhibition of human lipoxygenase-5; assay type: biochemical; conditions: mean ± SD of three independent experiments in triplicate; read-out: LOX5 IC50
T1 sequence (P09917 1-674): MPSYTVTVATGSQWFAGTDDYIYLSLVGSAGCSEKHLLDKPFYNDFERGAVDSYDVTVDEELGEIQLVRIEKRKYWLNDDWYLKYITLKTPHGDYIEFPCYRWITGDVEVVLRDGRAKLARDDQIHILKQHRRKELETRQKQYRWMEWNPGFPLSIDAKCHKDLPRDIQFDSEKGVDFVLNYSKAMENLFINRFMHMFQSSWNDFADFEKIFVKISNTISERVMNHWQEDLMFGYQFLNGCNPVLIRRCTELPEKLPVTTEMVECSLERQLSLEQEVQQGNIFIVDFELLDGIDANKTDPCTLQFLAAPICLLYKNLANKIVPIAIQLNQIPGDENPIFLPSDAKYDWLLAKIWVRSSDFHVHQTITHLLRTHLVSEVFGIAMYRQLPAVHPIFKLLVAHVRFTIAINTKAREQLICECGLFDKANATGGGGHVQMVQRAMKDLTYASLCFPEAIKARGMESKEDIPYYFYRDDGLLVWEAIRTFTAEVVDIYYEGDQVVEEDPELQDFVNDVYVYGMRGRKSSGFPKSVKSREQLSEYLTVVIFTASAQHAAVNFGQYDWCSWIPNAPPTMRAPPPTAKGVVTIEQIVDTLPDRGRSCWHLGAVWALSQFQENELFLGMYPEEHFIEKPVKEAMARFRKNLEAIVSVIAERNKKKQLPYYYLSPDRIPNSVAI
Protocol: The inhibition of human lipoxygenase-5 (hLOX-5) was performed as described [Herrera-Arozamena, Clara et al. "Tuning melatonin receptor subtype selectivity in oxadiazolone-based analogues: Discovery of QR2 ligands and NRF2 activators with neurogenic properties." European journal of medicinal chemistry vol. 190 (2020): 112090. doi:10.1016/j.ejmech.2020.112090], Data are the mean ± SD of three independent experiments performed in triplicate.

BV2 cells = assay: Nitric oxide detection with DAF in LPS-exposed BV2 cells; assay type: cell-based, mouse; conditions: 24 h LPS
Protocol: (§1) • Figure 1. Compound 1 reduces the inflammatory response against LPS in vitro. (A) Nitric oxide (NO) production in BV2 cells detected by DAF 24 h after LPS exposure and normalized by cell viability measured by MTT (n = 9). (B) qRT-PCR of TNFα (n = 9) in BV2 cells after 24 h LPS exposure. Sulforaphane (Sfn) was used as a positive control. […] Compound 1 decreases the inflammatory process 4 and 24 hours after LPS administration in vivo. Compound 1 (20 mg·kg^-1) daily was injected i.p. four days before the i.p. LPS (0.5 mg·kg^-1) administration. […] Compound 1 ameliorates the resolution of the inflammatory process triggered by LPS. […] (B) Locomotion activity measured by line crossings of an imaginary grid. […] Compound 1 reduced tau seeding in HEK-293 tau FRET biosensor measured by flow cytometer (C). […] Representative images of hyperphosphorylated tau intensity measured by AT8 and AT180 antibodies in three different regions of the hippocampus (GD, CA3 and CA1) (n = 11-12). (B) Quantification AT8 intensity, normalized to CA3 intensity of Sham animals. (C) Quantification of AT180 intensity, normalized to CA3 intensity of Sham animals (n = 9-12). […] Quantification of sarkosyl soluble (n = 10) (C) and insoluble species (D) using AT8 antibody (n = 10). Quantification of sarkosyl soluble (n = 10) (E) and insoluble species (F) using AT180 antibody (n = 10). […]

TNF-α mRNA = assay: qRT-PCR of TNFα in LPS-exposed BV2 cells; assay type: cell-based, mouse; conditions: 10 and 30 µM, 24 h LPS
Protocol: as §1

hyperphosphorylated tau = assay: Hyperphosphorylated tau (AT8 immunofluorescence) in primary neurons treated with AAV-hTauP301L; assay type: cell-based, mouse; conditions: treatment every other day for 8 days, compound 1 at 30 µM

COc1ccc2c(c1)CC(c1c[nH]c3ccc(OC)cc13)N2 (centres unmarked) [Compound 1, 5-Methoxy-3-(5-methoxyindolin-2-yl)-1H-indole] was tested, and the IC50 [1] was 3.08 ± 0.29 µM, the NO production (BV2 cells; 10 µM, BV2 cells) was “reduced to basal levels” and the “nitric oxide (NO) in BV2 cells exposed to LPS” value (BV2 cells; over the concentrations tested) was “concentration-dependent reduction”. The “TNF-α mRNA” value (TNF-α mRNA) was “reduced” and the AT8 intensity levels (hyperphosphorylated tau) was “reduced”.
